# “Also recorded” adds a separate entry of the source.
# Assays:
# [1] = system: RXR (Nurr1-RXR heterodimer); settings: JEG3, MH100-tk-luc reporter
# Protocol: (§4) Human choriocarcinoma cells, JEG3, were transfected in triplicate in 24-well plates. […] Each well was transfected with 100 ng of the gal4-binding luciferase reporter construct, MH100-tk-luc, 100 ng of CMX-RXR (Perlmann et al. (1995) Genes and Dev. 9: 769-782), and 100 ng of either CMX-gal4-Nurr1 (Perlmann et al. (1995) Genes and Dev. 9: 769-782), or CMX-gal4-Nurr1 dim^−.
# (§5) In reporter assays of conditioned media and 9-cis retinoic acid titration experiments, a CMX-gal4-RAR construct (Perlmann et al. (1995) Genes and Dev. 9: 769-782) was also used. In all experiments, CMX-βgal (200 ng) (Perlmann et al. (1995) Genes and Dev. 9, 769-782) was used as an internal control. Following transfection of JEG3 cells (6 hours post-transfection), calcium precipitate was removed by washing with fresh medium. Tissue explants or conditioned media were then added to the cells. After 24 hours, cells were harvested and assayed for luciferase and reference β-galactosidase activity on a luminometer/photometer.
# Reporter experiments were performed as previously described. […] Briefly, an expression vector encoding a derivative of the orphan-nuclear receptor Nurr1 (GAL4-Nurr1), was cotransfected into JEG3 cells with an expression vector encoding RXR and a reporter expression vector containing GAL4 binding sites in operable linkage with a luciferase reporter gene. […]
# [2] = system: primary ventral midbrain cells (dopamine secreting cells); assay: Primary ventral midbrain cultures, count of TH-immunoreactive (dopamine) cells; assay type: cell-based, rat; settings: for number of TH-immunoreactive (IR) cells: ligand alone, increasing concentrations, 3-5 days
# Protocol: (§1) Ventral midbrains from rat embryos at stage E15.5 were dissected, mechanically dissociated, and plated on poly-D-lysine coated 12 well plates in serum-free medium (N2; consisting of a 1:1 mixture of F12 and MEM with 5 μg/ml insulin, 100 μg/ml transferrin, 60 μM putrescine, 20 nM progesterone, 30 nM selenium, 6 mg/ml glucose and 1 mg/ml bovine serum albumin).
# (§2) Ventral midbrain, cortex and hippocampus from rat embryos at stage E14.5-15.5 were dissected, mechanically dissociated and plated on poly-D-lysine coated 12 or 24 well plates in serum free media (N2, consisting of a 1:1 mixture of MEM (+15 mM HEPES buffer) and Ham's F12 medium (+6 mg/ml glucose, 1 mg/ml bovine serum albumin, 5 ug/ml insulin, 100 ug/ml transferrin, 60 μM putrescine, 20 nM progesterone, 30 nM selenium and 1 mM glutamine). Ligands (all-trans RA, 9-cis retinoic acid, LG268, docosahexanoic acid (DHA), SR11237, TTNPB, and LB1208; stock solutions in DMSO) were diluted to working concentrations in N2, added to cells and incubated 3-5 days. GDNF was dissolved in phosphate-buffered saline (PBS) containing 1 mg/ml bovine serum albumin. These experiments were conducted in triplicate. Paraformaldehyde fixed cultures were then incubated over night with anti-tyrosine hydroxylase (TH) (1:1000, Pel-Freez), anti-NeuN (1:200, Chemicon) or anti-Nurr1 (1: 10,000, Santa Cruz) antibodies in PBS containing 0.5% (TH and NeuN) or 10% (Nurr1) fetal calf serum and 0.3% triton X100. Following rinses, cultures were incubated with biotinylated secondary antibody followed by detection of immuno-staining using the ABC immunoperoxidase kit from Vector. Cells were counted using brightfield microscopy (Nikon Eclipse EM 300). Cell counting was performed independently by two individuals to derive unbiased results.
# RAR = assay: Luciferase reporter assay in JEG3 cells transfected with gal4-RAR; assay type: cell-based; settings: JEG3, MH100-tk-luc reporter
# Protocol: as §4, §5
# [3] = system: primary ventral mesencephalic cultures; assay: Primary ventral mesencephalic cultures, count of NeuN-positive cells; assay type: cell-based, rat
# Protocol: as §2, with “Cell counting was performed independently by two individuals to derive unbiased results.” left out
# cortex cultures = assay: Primary cortex cultures, count of Nurr1-positive and non-expressing cells; assay type: cell-based, rat
# Protocol: as §2, with “Cell counting was performed independently by two individuals to derive unbiased results.” left out
# Nurr1+/+ cortical cells = assay: Primary cortical cultures from wild-type (Nurr1+/+) mice, NeuN count; assay type: cell-based, mouse; settings: 0.1 μM, three days
# Protocol: (§3) Nurr1^+/− females were mated with Nurr1^+/− males to generate embryo litters of mixed genotypes (25%^+/+, 50%^+/− and 25%^−/−) as previously described (Zetterström et al, Science 1997). Pregnant females were sacrificed and embryos at embryonic stage E15.5 were dissected. Tails were removed for genotyping. Brains were fine-dissected and meninges removed. Both cortices from each embryo were removed and placed in 500 μl culture medium (N2). When all embryos in the litter were dissected, the cortices were triturated by mechanical dissociation using a fire-polished Pasteur pipette. […] To avoid excessive cell death due to the extended dissection period when using gene targeted mice as compared to wild-type rats, 50 μl cell suspension was routinely plated. This generated cultures in the range of 200.000-470.000 cells per well. Six wells were plated per embryo; three were incubated in N2 only and three with N2+0.1 μM LG268. Cells were incubated for three days and thereafter fixed in 4% paraformaldehyde for 30 minutes and rinsed. For detection of neuronal nuclei, NeuN (diluted 1:300, Chemicon) was used in immunohistochemistry where visualization was with the ABC-kit from Vector. Cells were counted using brightfield microscopy (Eclipse E300M).
# Nurr1-/- cortical cells = assay: Primary cortical cultures from Nurr1-knock-out (Nurr1-/-) mice, NeuN count; assay type: cell-based, mouse; settings: 0.1 μM, three days
# Protocol: as §3
# hippocampal cultures = assay: Primary hippocampal cultures, count of Nurr1-positive and non-expressing cells; assay type: cell-based, rat
# Protocol: as §2, with “Cell counting was performed independently by two individuals to derive unbiased results.” left out
# [4] = system: primary midbrain cultures; assay: BrdU pulse labeling of primary midbrain cultures (proliferation); assay type: cell-based, rat; settings: 0.1 μM
# Protocol: as §1
# Bromodeoxyuridine (BrdU) was added in relevant experiments 4-6 hours before fixation. After fixation with 4% paraformaldehyde for 45 minutes, cells were rinsed in PBS. BrdU incorporation was detected by incubating cells with 2 M hydrochloric acid prior to digesting with 0.25% pepsin (Sigma). Following PBS rinses, cells were incubated in blocking solution (0.5% bovine serum albumin, 0.5% Tween-20 in PBS), and thereafter incubated with anti-BrdU antibody (Dako A/S; diluted 1:20 in blocking solution) at 4° C. overnight. Antibody-binding was detected with anti-mouse CY3-conjugated IgG (Jackson ImmunoResearch Labs Inc.). Cells were analyzed using inverted epifluorescent microscopy.
compound,measurement,setting,value
"CC1=C(/C=C/C(C)=C\C=C\C(C)=C\C(=O)O)C(C)(C)CCC1 [9cisRA, 9-cis retinoic acid]",activation of RXR reporter (titration),[1],efficient ligand
same,number of TH-IR neurons when combined with RAR antagonist RO,[2]; increasing concentrations combined with R041-5253 (RO),increase with increasing concentrations
same,number of TH-immunoreactive (IR) cells,[2],does not affect the number of TH-IR cells
same,activation of RAR reporter (titration),RAR,efficient ligand
"CC/C=C\C/C=C\C/C=C\C/C=C\C/C=C\C/C=C\CCC(=O)O [DHA, docosahexanoic acid]",number of NeuN-positive cells (entire neuronal-cell population),[3],do not produce a general increase
same,number of TH-immunoreactive (IR) cells,[2],increased the number of TH-IR cells in a dose-dependent manner; also recorded: efficiently increased the number of dopamine neurons
Cc1cc2c(cc1C1(c3ccc(C(=O)O)cn3)CC1)C(C)(C)CCC2(C)C [LG268],number of NeuN-positive cells (entire neuronal-cell population),[3],do not produce a general increase
same,increase in number of Nurr1-positive cells,cortex cultures,39%
same,number of Nurr1 non-expressing cells,cortex cultures,did not increase
same,efficiency compared to GDNF (TH-IR cells),"[2]; FIG. 12C, comparison of SR11237, LG268 and GDNF",more potent than either SR11237 or GDNF
same,number of TH-immunoreactive (IR) cells,[2],dose-dependent increase; also recorded: efficiently increased the number of dopamine neurons
same,total number of neurons (NeuN immunoreactivity),Nurr1+/+ cortical cells,significantly increased
same,total number of neurons (NeuN immunoreactivity),Nurr1-/- cortical cells,no increase
same,increase in number of Nurr1-positive cells,hippocampal cultures,36%
same,number of Nurr1 non-expressing cells,hippocampal cultures,did not increase
CC1(C)CCC(C)(C)c2cc(C3(c4ccc(C(=O)O)cc4)OCCO3)ccc21 [SR11237],number of dopamine secreting cells,"[2]; 72 hour incubation, compared to TTNPB, all-trans retinoic acid or no RXR ligand",increased dopamine secreting cells
same,number of TH-immunoreactive (IR) cells,[2],dose-dependent increase
same,proliferation (BrdU),[4],not due to increased proliferation
C/C(=C\c1ccc(C(=O)O)cc1)c1ccc2c(c1)C(C)(C)CCC2(C)C [TTNPB],effect on the neurotrophic effect of LG268,[2]; in the presence of LG268,blocks the neurotrophic effect
same,number of TH-immunoreactive (IR) cells,[2],does not increase the number of TH-IR cells

# Reference: US20030008273A1, “Methods for increasing the survival of neuronal cells” (priority 2001, published 2003)
